Results reported in patent US9693556B2, “Herbicidal pyridazinone derivatives” (SYNGENTA LIMITED, priority 2011, dated 2017).

What was measured:
Format in all cases: in vivo
Setaria faberi (SETFA) [1] = assay: Pre-emergence herbicidal glasshouse test on Setaria faberi; details: pre-emergence; 1000 g/h; evaluated after 13 days
In short: (§1)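 Scored on a five-point scale (1 = 0-19% to 5 = 80-100% damage) 13 days after treatment. Application rate 1000 g/h in acetone/water (50:50) containing 0.5% Tween 20, sprayed one day post-sowing for pre-emergence or eight days for post-emergence; glasshouse at 24/16° C, 14 h light, 65% humidity.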

Solanum nigrum (SOLNI) [2] = assay: Post-emergence herbicidal glasshouse test on Solanum nigrum; details: post-emergence; 1000 g/h; evaluated after 13 days
In short: as §1

[3] = test system: Echinochloa crus-galli (ECHCG); assay: Pre-emergence herbicidal glasshouse test on Echinochloa crus-galli; details: pre-emergence; 1000 g/h; evaluated after 13 days
In short: as §1

[4] = test system: Ipomoea hederacea (IPOHE); assay: Pre-emergence herbicidal glasshouse test on Ipomoea hederacea; details: pre-emergence; 1000 g/h; evaluated after 13 days
In short: as §1

[5] = test system: Amaranthus retoflexus (AMARE); assay: Post-emergence herbicidal glasshouse test on Amaranthus retoflexus; details: post-emergence; 1000 g/h; evaluated after 13 days
In short: as §1

[6] = test system: Ipomoea hederacea (IPOHE); assay: Post-emergence herbicidal glasshouse test on Ipomoea hederacea; details: post-emergence; 1000 g/h; evaluated after 13 days
In short: as §1

[7] = test system: Echinochloa crus-galli (ECHCG); assay: Post-emergence herbicidal glasshouse test on Echinochloa crus-galli; details: post-emergence; 1000 g/h; evaluated after 13 days
In short: as §1

[8] = test system: Amaranthus retoflexus (AMARE); assay: Pre-emergence herbicidal glasshouse test on Amaranthus retoflexus; details: pre-emergence; 1000 g/h; evaluated after 13 days
In short: as §1

Setaria faberi (SETFA) [9] = assay: Post-emergence herbicidal glasshouse test on Setaria faberi; details: post-emergence; 1000 g/h; evaluated after 13 days
In short: as §1

Solanum nigrum (SOLNI) [10] = assay: Pre-emergence herbicidal glasshouse test on Solanum nigrum; details: pre-emergence; 1000 g/h; evaluated after 13 days
In short: as §1

[11] = test system: Alopecurus myosuroides (ALOMY); assay: Post-emergence herbicidal glasshouse test on Alopecurus myosuroides; details: post-emergence; 1000 g/h; evaluated after 13 days
In short: as §1

[12] = test system: Alopecurus myosuroides (ALOMY); assay: Pre-emergence herbicidal glasshouse test on Alopecurus myosuroides; details: pre-emergence; 1000 g/h; evaluated after 13 days
In short: as §1

Row | SMILES | PRE Application SETFA herbicidal damage (five point scale) (Setaria faberi (SETFA) [1]) | POST Application SOLNI herbicidal damage (five point scale) (Solanum nigrum (SOLNI) [2]) | PRE Application ECHCG herbicidal damage (five point scale) [3] | PRE Application IPOHE herbicidal damage (five point scale) [4] | POST Application AMARE herbicidal damage (five point scale) [5] | POST Application IPOHE herbicidal damage (five point scale) [6] | POST Application ECHCG herbicidal damage (five point scale) [7] | PRE Application AMARE herbicidal damage (five point scale) [8] | POST Application SETFA herbicidal damage (five point scale) (Setaria faberi (SETFA) [9]) | PRE Application SOLNI herbicidal damage (five point scale) (Solanum nigrum (SOLNI) [10]) | POST Application ALOMY herbicidal damage (five point scale) [11] | PRE Application ALOMY herbicidal damage (five point scale) [12]
1 | Cn1ncc(-n2ccc(C(F)(F)F)c(-c3cccc(C(F)(F)F)c3)c2=O)c(O)c1=O [Compound 7.018] | 5 (5=80-100% damage) | 5 (5=80-100% damage) | 5 (5=80-100% damage) | 2 (2=20-39% damage) | 5 (5=80-100% damage) | 3 (3=40-59% damage) | 5 (5=80-100% damage) | 5 (5=80-100% damage) | 5 (5=80-100% damage) | 5 (5=80-100% damage) | 5 (5=80-100% damage) | 5 (5=80-100% damage)
2 | Cn1ncc(-n2ccc(C(F)(F)F)c(-c3cccc(C#N)c3)c2=O)c(O)c1=O [Compound 7.019] | 5 (5=80-100% damage) | 5 (5=80-100% damage) | 5 (5=80-100% damage) | 2 (2=20-39% damage) | 5 (5=80-100% damage) | 2 (2=20-39% damage) | 5 (5=80-100% damage) | 5 (5=80-100% damage) | 5 (5=80-100% damage) | 5 (5=80-100% damage) | 5 (5=80-100% damage) | 5 (5=80-100% damage)
3 | COc1cc(-c2c(C(F)(F)F)ccn(-c3cnn(C)c(=O)c3O)c2=O)cc(OC)c1OC [Compound 7.021] | 5 (5=80-100% damage) | 5 (5=80-100% damage) | 5 (5=80-100% damage) | 4 (4=60-79% damage) | 5 (5=80-100% damage) | 4 (4=60-79% damage) | 5 (5=80-100% damage) | 5 (5=80-100% damage) | 5 (5=80-100% damage) | 5 (5=80-100% damage) | 5 (5=80-100% damage) | 5 (5=80-100% damage)
4 | Cn1ncc(-n2ccc(C(F)(F)F)c(-c3cc(Cl)cc(Cl)c3)c2=O)c(O)c1=O [Compound 7.022] | 5 (5=80-100% damage) | 5 (5=80-100% damage) | 5 (5=80-100% damage) | 2 (2=20-39% damage) | 5 (5=80-100% damage) | 2 (2=20-39% damage) | 5 (5=80-100% damage) | 5 (5=80-100% damage) | 5 (5=80-100% damage) | 5 (5=80-100% damage) | 4 (4=60-79% damage) | 5 (5=80-100% damage)
5 | Cn1ncc(-n2ccc(C(F)(F)F)c(-c3cccc(S(C)(=O)=O)c3)c2=O)c(O)c1=O [Compound 7.023] | 4 (4=60-79% damage) | 5 (5=80-100% damage) | 2 (2=20-39% damage) | 2 (2=20-39% damage) | 5 (5=80-100% damage) | 1 (1=0-19% damage) | 4 (4=60-79% damage) | 5 (5=80-100% damage) | 4 (4=60-79% damage) | 5 (5=80-100% damage) | 1 (1=0-19% damage) | 2 (2=20-39% damage)
